Results: ChEMBL document CHEMBL1142059, “Excelsione, a depsidone from an endophytic fungus isolated from the New Zealand endemic tree Knightia excelsa” (J Nat Prod, 2007)

Test system: P388; call rule not given here
Assay: Cytotoxicity against mouse P388 cells at 12.5 ug/mL
Assay type: cell-based

Cc1cc(O)c(CO)c2c1C(=O)Oc1c(C)c3c(c(O)c1O2)C(=O)OC3 [EXCELSIONE]
Activity: Not Active
